The values below come from US8202865B2, “Oxadiazole derivatives” (Merck Serono SA, priority 2007, dated 2012).

The target of one assay is T1, S1P3 (Homo sapiens, UniProt Q99500).
T1 construct: expressed in transfected cells; host or cells: CHO cells (membranes)
Description: 35S-GTPγS binding, S1P3 membranes. It is filed as biochemical. The settings on record: membranes from CHO cells expressing S1P3; 60 min 30° C. The method, then: (§1) Receptor binding assay: Membranes were prepared from CHO cells expressing S1P1 or S1P3 for use in ligand and […] binding studies. Cells were suspended in 50 mM TRIS, pH 7.4, 2 mM EDTA, 250 mM Sucrose (buffer A) and 1× Complete protease inhibitor cocktail (Roche), and disrupted at 4° C. by N2 decompression using a cell disruption bomb (Parr Instrument). Following centrifugation at 1000 RPM for 10 min at 4° C., the supernatant was suspended in buffer A and centrifuged again at 19000 RPM for 60 min at 4° C. The pellet was then suspended in 10 mM HEPES, pH 7.4, 1 mM EDTA, 250 mM Sucrose (Buffer B), and 1× Complete EDTA-free protease inhibitor cocktail and homogenized using a potter. Membranes were flash frozen in liquid N2 and stored at −80° C. [33P]sphingosine 1-phosphate (3000 Ci/mmol; American Radiolabeled Chemicals, Inc.) was added to test compounds in DMSO. Membranes and WGA SPA beads (GE Healthcare) were added to give a final volume of 100 μl in 96-well plates with assay concentrations of 25 pM or 10 pM [33P]sphingosine 1-phosphate (respectively for S1P1 or S1P3), 50 mM HEPES, pH 7.5, 5 mM MgCl2, 100 mM NaCl, 0.4% fatty acid-free BSA, 1-5 μg/well of proteins and 100 μg/well of WGA SPA beads. Binding was performed for 60 min at RT on a shaker and bound radioactivity was measured on a PerkinElmer 1450 MicroBeta counter. Specific binding was calculated by subtracting remaining radioactivity in the presence of 1000-fold excess of unlabeled S1P. Binding data were analyzed using the GraphPad Prism program.
Measurements of ^35S-GTPγS Binding: Membranes (1 to 10 μg protein) prepared as described above, were incubated in 96-well Scintiplates (PerkinElmer) with test compounds diluted in DMSO, in 180 μl of 20 mM HEPES, pH 7.4, 10 mM MgCl2, 2 μg/well Saponin, 0.2% fatty acid free BSA (Assay buffer), 140 mM NaCl and 1.7 μM GDP. The assay was initiated with the addition of 20 μl of 1.5 nM [35S]-GTPγS (1100 Ci/mmol; GE Healthcare) in assay buffer. After 60 min incubation at 30° C. on a shaker, plates were centrifuged for 10 min at 2000 RPM. Supernatant was discarded and membrane bound radioactivity was measured on a PerkinElmer 1450 MicroBeta counter. Triplicate samples were averaged and expressed as % response relative to S1P activation in absence of compound (n=2).
In general terms: GTPγS resists hydrolysis and so accumulates on activated G proteins.

For assay [1], the target named is T2, S1P1 (Homo sapiens, UniProt P21453).
T2 construct: expressed in transfected cells; host or cells: CHO cells (membranes)
T2 sequence (P21453 whole entry, species assumed): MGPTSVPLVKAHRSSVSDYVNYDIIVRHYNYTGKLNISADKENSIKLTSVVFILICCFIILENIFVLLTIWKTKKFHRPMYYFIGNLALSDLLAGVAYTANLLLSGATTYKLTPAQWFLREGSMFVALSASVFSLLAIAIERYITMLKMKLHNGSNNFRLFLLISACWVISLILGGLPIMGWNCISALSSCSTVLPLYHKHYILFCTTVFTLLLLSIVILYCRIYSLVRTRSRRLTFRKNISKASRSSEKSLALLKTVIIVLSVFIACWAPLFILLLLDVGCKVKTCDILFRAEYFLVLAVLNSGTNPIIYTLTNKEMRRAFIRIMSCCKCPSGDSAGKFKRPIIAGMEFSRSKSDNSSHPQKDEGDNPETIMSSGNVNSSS
Description: Receptor binding assay, [33P]sphingosine 1-phosphate, membranes, WGA SPA beads. The settings on record: membranes from CHO cells expressing S1P1; 25 pM [33P]S1P; 60 min RT. The method, then:
as §1

Assay [2] has as its target T2, S1P1. The assay is described as follows: 35S-GTPγS binding, S1P1 membranes. It is filed as biochemical. The settings on record: membranes from CHO cells expressing S1P1; 60 min 30° C. In a few lines:
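CHO-cell membranes expressing S1P1 or S1P3 (1-10 μg) incubated with compounds in 20 mM HEPES pH 7.4, 10 mM MgCl2, 140 mM NaCl, saponin, 0.2% BSA, 1.7 μM GDP and [35S]-GTPγS (20 μl of 1.5 nM added), 60 min at 30° C. Bound radioactivity expressed as % of S1P activation.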

SMILES strings stand for the structures. Counter-ions that a name gives are not always drawn.

T1 sequence (Q99500 whole entry, species assumed): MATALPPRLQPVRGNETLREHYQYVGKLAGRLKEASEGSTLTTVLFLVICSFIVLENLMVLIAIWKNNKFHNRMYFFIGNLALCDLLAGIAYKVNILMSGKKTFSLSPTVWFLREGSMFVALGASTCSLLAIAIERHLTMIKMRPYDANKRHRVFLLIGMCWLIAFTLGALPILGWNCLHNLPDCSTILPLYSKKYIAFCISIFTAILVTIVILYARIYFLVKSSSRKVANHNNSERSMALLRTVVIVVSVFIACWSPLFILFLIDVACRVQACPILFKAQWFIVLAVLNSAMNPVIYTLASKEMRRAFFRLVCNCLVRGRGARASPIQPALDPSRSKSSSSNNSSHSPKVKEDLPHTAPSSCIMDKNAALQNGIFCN

As to `Cc1ccccc1-c1ccc(-c2nc(-c3ccc(C(=O)O)cc3F)no2)cc1C` [Example 10, 4-[5-(2,2′-dimethylbiphenyl-4-yl)-1,2,4-oxadiazol-3-yl]-3-fluorobenzoic acid], the EC50 at S1P3 is > 30000 nM; at S1P1 [2], 3510 nM. This compound came in with a Ki at S1P1 [1] of 330 nM.
The matching figures for `COc1cc(-c2nc(-c3ccc(C(=O)O)c(F)c3)no2)ccc1-c1cscc1C` [Example 12, 2-fluoro-4-{5-[3-methoxy-4-(4-methyl-3-thienyl)phenyl]-1,2,4-oxadiazol-3-yl}benzoic acid]: > 30000 nM, 148 nM and 60 nM.
The matching figures for `COc1cc(-c2nc(-c3ccc(C(=O)O)c(F)c3)no2)ccc1-c1ccccc1C` [Example 13, 2-fluoro-4-[5-(2-methoxy-2′-methylbiphenyl-4-yl)-1,2,4-oxadiazol-3-yl]benzoic acid]: > 30000 nM, 341 nM and 130 nM.
For the compound `CC1CCCCN1c1ccc(-c2nc(-c3ccc(C(=O)O)c(F)c3)no2)cc1C(F)(F)F` (stereo not drawn) [Example 19, 2-fluoro-4-{5-[4-(2-methylpiperidin-1-yl)-3-(trifluoromethyl)phenyl]-1,2,4-oxadiazol-3-yl}benzoic acid], the half-maximal effective concentration (EC50) at S1P3 is > 30000 nM; on S1P1 [2] it was 347 nM. At S1P1 [1], this compound displayed a Ki of 110 nM.
The corresponding values for `Cc1ccccc1-c1ccc(-c2nc(-c3ccc(C(=O)O)c(F)c3)no2)cc1C(F)(F)F` [Example 22, 2-fluoro-4-{5-[2′-methyl-2-(trifluoromethyl)biphenyl-4-yl]-1,2,4-oxadiazol-3-yl}benzoic acid] are > 20000 nM, 417 nM and 524 nM.
For `Cc1cscc1-c1ccc(-c2nc(-c3ccc(C(=O)O)c(F)c3)no2)cc1C(F)(F)F` [Example 23, 2-fluoro-4-{5-[4-(4-methyl-3-thienyl)-3-(trifluoromethyl)phenyl]-1,2,4-oxadiazol-3-yl}benzoic acid], the EC50 turned out to be 14900 nM on S1P3 and 197 nM on S1P1 [2]. The Ki on S1P1 [1] was 90 nM.
The corresponding values for `Cc1cc(-c2nc(-c3ccc(C(=O)O)cc3F)no2)ccc1-c1cscc1C` [Example 26, 3-fluoro-4-{5-[3-methyl-4-(4-methyl-3-thienyl)phenyl]-1,2,4-oxadiazol-3-yl}benzoic acid] are > 20000 nM, 360 nM and 172 nM.
The corresponding values for `CC1CCCCN1c1ccc(-c2nc(-c3ccc(C(=O)O)cc3F)no2)cc1C(F)(F)F` (stereo not drawn) [Example 27, 3-fluoro-4-{5-[4-(2-methylpiperidin-1-yl)-3-(trifluoromethyl)phenyl]-1,2,4-oxadiazol-3-yl}benzoic acid] are > 20000 nM, 1100 nM and 505 nM.
The corresponding values for `COc1ncccc1-c1ccc(-c2nc(-c3ccc(C(=O)O)c(F)c3)no2)cc1C` [Example 28, 2-fluoro-4-{5-[4-(2-methoxypyridin-3-yl)-3-methylphenyl]-1,2,4-oxadiazol-3-yl}benzoic acid] are > 30000 nM, 834 nM and 190 nM.
For `CC1CCCCN1c1ccc(-c2nc(-c3ccc(C(=O)O)c(F)c3)no2)cc1C#N` (stereo not drawn) [Example 29, 4-{5-[3-cyano-4-(2-methylpiperidin-1-yl)phenyl]-1,2,4-oxadiazol-3-yl}-2-fluorobenzoic acid], the EC50 was > 30000 nM at S1P3 and 430 nM on S1P1 [2]. At S1P1 [1], the Ki is 70 nM.
The corresponding values for `CC1CCCCN1c1ccc(-c2nc(-c3ccc(C(=O)O)c(F)c3)no2)cc1NS(C)(=O)=O` (stereo not drawn) [Example 30, 2-fluoro-4-(5-{4-(2-methylpiperidin-1-yl)-3-[(methylsulfonyl)amino]phenyl}-1,2,4-oxadiazol-3-yl)benzoic acid] are 5930 nM, 50 nM and 40 nM.
As to `CC1CCCCN1c1ccc(-c2nc(-c3ccc(OCC(=O)O)c(F)c3)no2)cc1C(F)(F)F` (stereo not drawn) [Example 47, (2-fluoro-4-{5-[4-(2-methylpiperidin-1-yl)-3-(trifluoromethyl)phenyl]-1,2,4-oxadiazol-3-yl}phenoxy)acetic acid], the EC50 on S1P3 was determined as 1000 nM; on S1P1 [2], 40 nM. Further, the affinity at S1P1 [1], expressed as Ki, was 4 nM.
In the case of `Cc1ccccc1-c1ccc(-c2nc(-c3ccc(OCC(=O)O)c(F)c3)no2)cc1C` [Example 48, {4-[5-(2,2′-dimethylbiphenyl-4-yl)-1,2,4-oxadiazol-3-yl]-2-fluorophenoxy}acetic acid], the EC50 at S1P3 turned out to be 17000 nM; on S1P1 [2], 129 nM. The Ki at S1P1 [1] worked out at 40 nM.
Take `Cc1ccccc1-c1ccc(-c2nc(-c3ccc(NCC(=O)O)c(F)c3)no2)cc1C` [Example 56, N-{4-[5-(2,2′-dimethylbiphenyl-4-yl)-1,2,4-oxadiazol-3-yl]-2-fluorophenyl}glycine]: the values for the EC50 on S1P3 and on S1P1 [2] were 14500 nM and 70 nM, respectively. On S1P1 [1], this compound returned a Ki of 10 nM.
With `Cc1ccccc1-c1ccc(-c2nc(-c3ccc(C(=O)O)c(F)c3)no2)cc1COC(C)C` [Example 59, 2-fluoro-4-{5-[2-(isopropoxymethyl)-2′-methylbiphenyl-4-yl]-1,2,4-oxadiazol-3-yl}benzoic acid], the EC50 on S1P3 is 767 nM; on S1P1 [2], 286 nM. This compound also gave a Ki at S1P1 [1] of 182 nM.
The matching figures for `Cc1ccccc1-c1ccc(-c2nc(-c3ccc(C(=O)O)c(F)c3)no2)cc1CN(C)C` [Example 62, 4-(5-{2-[(dimethylamino)methyl]-2′-methylbiphenyl-4-yl}-1,2,4-oxadiazol-3-yl)-2-fluorobenzoic acid, Hydrochloride salt]: 699 nM, 92 nM and 24 nM.
The corresponding values for `CCOCc1cc(-c2nc(-c3ccc(C(=O)O)c(F)c3)no2)ccc1-c1ccccc1C` [Example 63, 4-{5-[2-(ethoxymethyl)-2′-methylbiphenyl-4-yl]-1,2,4-oxadiazol-3-yl}-2-fluorobenzoic acid] are 615 nM, 60 nM and 30 nM.
The corresponding values for `CCS(=O)(=O)Nc1cc(-c2nc(-c3ccc(C(=O)O)c(F)c3)no2)ccc1N1CCCCC1C` (stereo not drawn) [Example 67, 4-{5-[3-[(ethylsulfonyl)amino]-4-(2-methylpiperidin-1-yl)phenyl]-1,2,4-oxadiazol-3-yl}-2-fluorobenzoic acid] are 1750 nM, 72 nM and 67 nM.
Take `Cc1ccccc1-c1ccc(-c2nc(-c3ccc(C(=O)O)c(Cl)c3)no2)cc1C` [Example 68, 2-chloro-4-[5-(2,2′-dimethylbiphenyl-4-yl)-1,2,4-oxadiazol-3-yl]benzoic acid]: the concentration for a half-maximal effect (EC50) is > 30000 nM on S1P3 and 133 nM at S1P1 [2]. The affinity on S1P1 [1] corresponds to a Ki of 65 nM.
The matching figures for `COCc1cc(-c2nc(-c3ccc(C(=O)O)c(Cl)c3)no2)ccc1-c1ccccc1C` [Example 69, 2-chloro-4-{5-[2-(methoxymethyl)-2′-methylbiphenyl-4-yl]-1,2,4-oxadiazol-3-yl}benzoic acid]: 2630 nM, 34 nM and 26 nM.
The matching figures for `CC1CCCCN1c1ccc(-c2nc(-c3ccc(C(=O)O)c(Cl)c3)no2)cc1NS(C)(=O)=O` (stereo not drawn) [Example 70, 2-chloro-4-(5-{4-(2-methylpiperidin-1-yl)-3-[(methylsulfonyl)amino]phenyl}-1,2,4-oxadiazol-3-yl)benzoic acid]: 1410 nM, 57 nM and 69 nM.

Broadly, the EC50 is the concentration needed to bring the measured effect to its halfway point. Low values mean a more potent agent, high ones a less potent agent. For orientation: Ki means the equilibrium dissociation constant of an inhibitor or competing ligand from its target.
